Measured values reported in the PolyMetriX glass transition set.
± gives the standard deviation of the reports.

glass transition temperature	SMILES
80.00 °C	*CCN(CCOC(=O)c1cc(OCCN(C)c2ccc(S(=O)(=O)CCCCCCCC)cc2)cc(C(=O)O*)c1)c1ccc(S(=O)(=O)C(F)(F)C(F)(F)C(F)(F)C(F)(F)C(F)(F)C(F)(F)C(F)(F)C(F)(F)F)cc1 (repeat unit)
221.00 °C	*CCC(=O)Nc1ccc(Oc2ccc(Oc3ccc(NC(=O)CCN4C(=O)c5ccc(C(=O)c6ccc7c(c6)C(=O)N(*)C7=O)cc5C4=O)cc3)cc2)cc1 (repeat unit)
127.00 °C	*CC(*)(C)C(=O)Oc1ccc(C(=O)/C=C/c2ccc(Cl)cc2)cc1 (repeat unit)
269.00 °C	*c1ccc(Nc2ccc(C3(c4ccc(Nc5ccc(S(*)(=O)=O)cc5)c(C)c4)c4ccccc4-c4ccccc43)cc2C)cc1 (repeat unit)
89.00 °C	*c1cc(CCCCCC)c(-c2ccc3c4ccc(-c5sc(-c6sc(*)c7nc(CC)c(CC)nc67)cc5CCCCCC)cc4n(CCCCCCCCCCCC)c3c2)s1 (repeat unit)
177.00 °C	*Oc1ccc(Oc2ccc(C(=O)c3ccc(*)cc3)cc2)cc1C(C)(C)C (repeat unit)
75.00 °C	*CCCCCCCCCCCCNC(=O)c1ccc(C(=O)N*)c(Oc2ccccc2)c1 (repeat unit)
58.00 °C	*CC(*)(C)C(=O)OCCCCCCCCCCn1c2ccccc2c2cc(/C=C(\C#N)C(=O)OC)ccc21 (repeat unit)
192.00 °C	*CC(C)(C)C1C(=O)N(C2CCCCC2)C(=O)C1* (repeat unit)
221.00 °C	*CC(=O)Nc1ccc(Oc2cccc(Oc3ccc(NC(=O)CN4C(=O)c5ccc(C(c6ccc7c(c6)C(=O)N(*)C7=O)(C(F)(F)F)C(F)(F)F)cc5C4=O)cc3)c2)cc1 (repeat unit)
34.00 °C	*CCCCCCCCCCCCCCCCOC(=O)NCCCCCCCCCCNC(=O)O* (repeat unit)
204.00 °C	*c1ccc(Oc2ccccc2Oc2ccc(N3C(=O)c4ccc(Oc5cc6ccccc6cc5Oc5ccc6c(c5)C(=O)N(*)C6=O)cc4C3=O)cc2)cc1 (repeat unit)
72.00 °C	*/C(C#N)=C/c1cc(OCC(CC)CCCC)c(/C=C(\C#N)c2ccc3c4ccc(*)cc4n(CC(CC)CCCC)c3c2)cc1OCC(CC)CCCC (repeat unit)
249.00 °C	*=Nc1ccc(C(C)(C)c2ccc(C(C)(C)c3ccc(/N=C4/OC(=O)c5ccc(Oc6ccc7c(c6)C(=O)OC7=*)cc54)cc3)cc2)cc1 (repeat unit)
79.00 °C	*c1ccc(-c2cc(-c3ccc(OCCCCCCCCCCCC)cc3)cc(-c3ccc(-c4ccc5c(c4)C(CCCCCC)(CCCCCC)c4cc(*)ccc4-5)cc3)c2-c2ccc(OCCCCCCCCCCCC)cc2)cc1 (repeat unit)
147.00 °C	*Oc1cccc(OC(=O)c2cccc(C(*)=O)c2)c1 (repeat unit)
132.00 °C	*CC(*)(CC(=O)Oc1ccccc1)C(=O)Oc1ccccc1 (repeat unit)
119.00 °C	*CC(O)COc1ccc(C(C)(C)c2ccc(OCC(O)COc3cccc(NC(=O)Cc4cccc(CC(=O)Nc5cccc(O*)c5)c4)c3)cc2)cc1 (repeat unit)
206.00 °C	*Oc1ccc(S(=O)(=O)c2ccc(Oc3ccc(C(C)(C)c4ccc(*)cc4)cc3)c([N+](=O)[O-])c2)cc1[N+](=O)[O-] (repeat unit)
52.00 °C	*CCCCCNC(=O)CCCCCCCCCCCCCCCCCCC(=O)N* (repeat unit)
-19.00 °C	*CC(*)(CC(=O)OCCCCCCCC)C(=O)OCCCCCCCC (repeat unit)
60.00 °C	*CCN(CCOC(=O)c1cccc(C(=O)O*)c1)c1ccccc1 (repeat unit)
259.00 °C	*C(=O)Nc1ccc(-c2ccc(NC(=O)c3ccc4c(c3)C(=O)N(c3c(C)cc(C)c(N5C(=O)c6ccc(*)cc6C5=O)c3C)C4=O)cc2C)c(C)c1 (repeat unit)
371.00 °C	*C(=O)c1cc2c(cc1Cl)C(=O)N(c1c(C)cc(C)c(N3C(=O)c4cc(*)c(Cl)cc4C3=O)c1C)C2=O (repeat unit)
72.00 °C	*CC(*)(C)C(=O)OCCCCCCCCCCOc1ccc(C(=O)Oc2ccc(C(=O)/C=C/c3c(C)c4ccccc4n3C)cc2)cc1 (repeat unit)
97.00 °C	*Oc1ccc(OC(=O)Oc2ccc(C(C)(C)c3ccc(OC(*)=O)cc3)cc2)cc1 (repeat unit)
53.00 °C	*CC(*)C(=O)OCCCCCn1c2ccccc2c2ccccc21 (repeat unit)

glass transition temperature	SMILES
200.00 °C	*/C(=C(/*)c1ccc[c]([Ge]([CH3])([CH3])[CH3])c1)c1ccccc1 (repeat unit)
-54.00 °C	*CCCCCCCCCCOC(=O)CCCCCCCCC(=O)O* (repeat unit)
242.00 °C	*Oc1ccc(S(=O)(=O)c2ccc(Oc3ccc(C45CC6CC(CC(c7ccc(*)cc7)(C6)C4)C5)cc3)cc2)cc1 (repeat unit)
95.20 °C	*CC(*)(C)C(=O)OCCCCCCCCCCCCCCC(=O)NC1OC(COC(C)=O)C(OC2OC(COC(C)=O)C(OC(C)=O)C(OC(C)=O)C2OC(C)=O)C(OC(C)=O)C1OC(C)=O (repeat unit)
104.00 °C	*CCCCOC(=O)OCCCCN1C(=O)c2ccc(-c3ccc4c(c3)C(=O)N(*)C4=O)cc2C1=O (repeat unit)
70.00 °C	*CCCCOC(=O)c1ccc(-c2ccc(C(=O)O*)cc2)cc1 (repeat unit)
31.90 °C	*CCN(CCOC(=O)Nc1ccc(C)c(NC(=O)O*)c1)c1ccccc1 (repeat unit)
162.00 °C	*Oc1ccc(C(c2ccc(Oc3ccc(C(=O)C(=O)c4ccc(*)cc4)cc3)cc2)(C(F)(F)F)C(F)(F)F)cc1 (repeat unit)
18.00 °C	*CC(*)c1ccc(COCCC(F)(F)C(F)(F)C(F)(F)C(F)(F)C(F)(F)C(F)(F)F)cc1 (repeat unit)
48.00 °C	*Nc1ccc(Cc2ccc(NC(=O)NCCCCCCCCCCCCCCCCCCNC(*)=O)cc2)cc1 (repeat unit)
250.00 °C	*c1cccc(NC(=O)c2ccc(OCCOc3ccc(C(=O)Nc4ccc5[nH]c(*)nc5c4)cc3)cc2)c1 (repeat unit)
158.00 °C	*c1ccc2cc3cc(-c4sc(-c5cc(CCCCCCCCCCCC)c(*)s5)cc4CCCCCCCCCCCC)ccc3cc2c1 (repeat unit)
62.00 °C	*c1nc(-c2ccccc2)nc(N(CCCCCCCCCCN(*)c2ccccc2)c2ccccc2)n1 (repeat unit)
80.00 °C	*NC1CCC(CC(C)(C)NC(=O)CCCCC(*)=O)CC1 (repeat unit)
66.00 °C	*CCCNC(=O)C(NC(=O)C(Cc1ccccc1)NC(=O)CCCCCCCCC(=O)NC(Cc1ccccc1)C(=O)NC(C(=O)NCCCOCCOCCO*)C(C)C)C(C)C (repeat unit)
142.00 °C	*c1cccc(OCCCCCCCCOc2cccc(N3C(=O)c4ccc(-c5cccc6c5C(=O)N(*)C6=O)cc4C3=O)c2)c1 (repeat unit)
187.50 °C	*c1ccc2c(c1)C(=O)N(c1ccc(OCCOCCOc3ccc(N4C(=O)c5ccc(C(*)(C(F)(F)F)C(F)(F)F)cc5C4=O)cc3)cc1)C2=O (repeat unit)
152.00 °C	*Oc1ccc(C(C)(C)c2ccc(OC(=O)CN(CC(*)=O)c3ccc(/N=N/c4ccc([N+](=O)[O-])cc4)cc3)cc2)cc1 (repeat unit)
216.00 °C	*c1ccc(Oc2ccc(Oc3ccc(Oc4ccc(-c5cnc6ccc(-c7ccc8ncc(*)nc8c7)cc6n5)cc4)cc3)cc2)cc1 (repeat unit)
320.00 ± 16 °C	*C(=O)c1ccc2c(c1)C(=O)N(c1c(C)cc(Cc3cc(C)c(N4C(=O)c5ccc(*)cc5C4=O)c(C)c3)cc1C)C2=O (repeat unit)
282.50 °C	*C(=O)c1ccc2c(c1)C(=O)N(c1ccc(Oc3ccccc3N3C(=O)c4ccc(*)cc4C3=O)cc1)C2=O (repeat unit)
121.00 °C	*c1ccc(-c2c(-c3ccc(-c4ccccc4)cc3)cc(-c3ccc(OCCCCCCCCCCOc4ccc(-c5cc(-c6ccc(-c7ccccc7)cc6)c(-c6ccc(-n7c(=O)c8cc9c(=O)n(*)c(=O)c9cc8c7=O)cc6)c(-c6ccc(-c7ccccc7)cc6)c5)cc4)cc3)cc2-c2ccc(-c3ccccc3)cc2)cc1 (repeat unit)
270.00 °C	*c1cccc(C(=O)Nc2ccc(Oc3ccc(-c4ccc(Oc5ccc(NC(=O)c6cccc(N7C(=O)c8ccc(-c9ccc%10c(c9)C(=O)N(*)C%10=O)cc8C7=O)c6)cc5)cc4)cc3)cc2)c1 (repeat unit)
293.00 °C	*Nc1ccc(Cc2ccc(NC(=O)c3cc(C(*)=O)cc(N4C(=O)C5C6CCC(C6)C5C4=O)c3)cc2)cc1 (repeat unit)
47.00 °C	*CC(*)c1ccccc1COCCCCC (repeat unit)
64 ± 1.2 °C	*CCOC(=O)c1ccc(C(=O)O*)c2ccccc12 (repeat unit) [Poly(ethylene- 1 ,4-naphthalenedicarboxylate) ]

SMILES	glass transition temperature
*CC(*)OCCCCCCCC (repeat unit) [Poly(octyl vinyl ether)]	-79.83 ± 0.9 °C
*C([2H])([2H])C(*)([2H])c1c([2H])c([2H])c([2H])c([2H])c1[2H] (repeat unit)	97.00 °C
*CC(*)c1ccc(CC)cc1 (repeat unit)	71.40 °C
*CCC1C[N+](C)(C)CC1* (repeat unit)	-6.70 °C
*CC(*)SCCCC (repeat unit)	-20.00 °C
*CCOCCC(=O)O* (repeat unit)	-35.00 °C
*Oc1ccc(Oc2ccc(P(=O)(c3ccccc3)c3ccc(Oc4ccc(Oc5cccc(*)n5)cc4)cc3)cc2)cc1 (repeat unit)	164.00 °C
*CC(*)c1c(F)c(F)c(OC)c(F)c1F (repeat unit)	94.00 °C
*CC(*)C(=O)OCCCCC (repeat unit)	-57.00 °C
*Sc1ccc(P(=O)(c2ccccc2)c2ccc(Sc3ccc(-c4ccc(*)cc4)cc3)cc2)cc1 (repeat unit)	232.00 °C
*CCCCCC(*)CC (repeat unit)	-73.00 °C
